Measurements reported in patent US4460782A, “2-Ethoxymethyl and 2-methoxymethyl N-(3,5-dichlorophenyl) succinamides” (Consortium fur Elektrochemische Industrie GmbH, priority 1980, dated 1984).
Like-named read-outs stand apart in the source and are kept apart here.

What was measured:
[1] = test system: Penicillium glaucum; assay: Spore germination test, Penicillium glaucum; type: cell-based; settings: 500 ppm active substance, 48 hours at 20° C., vs untreated control, read-out: Fungitoxicity against fungi spore, Penicillium glaucum (effectiveness)
Protocol: (§1) 50 μl of a solution or suspension containing 500 ppm of the active substance are introduced into the hollow of hollow-ground slides, together with 50 μl of a spore suspension prepared by washing the spores from an agar culture with a nutrient solution containing, per liter, 10 g of sugar, 1 g of glycol, 1 g of KH2 PO4 and 0.5 g of MgSO4.
(§2) The slides are kept at 20° C. for 48 hours in a petri dish, the base of which is covered with a moistened filter paper.
(§3) The ratio of germinated and ungerminated spores is then compared with an untreated control sample.
(§4) The effectiveness is calculated as a percentage according to the following formula: [formula]
(§5) The test set-up and procedure are the same as those described in Example 5.

[2] = test system: Alternaria solani; assay: Spore germination test, Alternaria solani; type: cell-based; settings: 500 ppm active substance, 48 hours at 20° C., vs untreated control, read-out: Fungitoxicity against fungi spore, Alternaria solani (effectiveness)
Protocol: as §1, §2, §3, §4, §5

[3] = test system: Botrytis cinerea; assay: Grape juice test against Botrytis cinerea; type: cell-based; settings: 10 ppm active substance
Protocol: 20 ml of a nutrient solution consisting of grape juice and distilled water in a weight ratio of 1:1 are poured into glass petri dishes and the active substances listed in Table 1 are added thereto in the concentrations indicated. Each test mixture is then inoculated with 50 μl of a suspension of Botrytis spores, prepared by washing the Botrytis spores from an agar culture with distilled water.
After incubation periods of 10 and 20 days, respectively, at 20° C., the extent of fungal development on the surface of the nutrient solution is assessed.
The effectiveness is calculated as a percentage, according to the following formula: [formula] […]

[4] = test system: Septoria nodorum; assay: Spore germination test, Septoria nodorum; type: cell-based; settings: Parastagonospora nodorum; 500 ppm active substance; 48 hours at 20° C.; vs untreated control; read-out: Fungitoxicity against fungi spore, Septoria nodorum (effectiveness)
Protocol: as §1, §2, §3, §4, §5

[5] = test system: Fusarium nivale; assay: Spore germination test, Fusarium nivale; type: cell-based; settings: Microdochium nivale; 500 ppm active substance; 48 hours at 20° C.; vs untreated control; read-out: Fungitoxicity against fungi spore, Fusarium nivale (effectiveness)
Protocol: as §1, §2, §3, §4, §5

[6] = test system: Tilletia tritici; assay: Seed dressing test against wheat bunt (Tilletia tritici); type: in vivo; settings: Tilletia caries, read-out: % effectiveness (percentage germination inhibition)
Protocol: Healthy wheat seed is uniformly infected with spores of Tilletia tritici.The infected seed is subsequently dressed carefully with the active substances according to the invention, prepared in the form of dry dressings.
After being dressed, the wheat grains are placed in dishes of damp earth. Incubation takes place in a drying cupboard at from 14° to 17° C. After 48 hours, the spores adhering to the grains are removed by pressing the grains into loam/earth.
After incubation for a further eight days at from 14° to 17° C. in the drying cupboard, the ratio of germinated and ungerminated spores as, compared with an untreated control, is determined under a binocular microscope.
The action of the active substances according to the invention, is given as percentage germination inhibition. […]

[7] = test system: Botrytis cinerea; assay: Spore germination test, Botrytis cinerea; type: cell-based; settings: 500 ppm active substance, 48 hours at 20° C., vs untreated control, read-out: Fungitoxicity against fungi spore, Botrytis cinerea (effectiveness)
Protocol: as §1, §2, §3, §4, §5

[8] = 240 h, 10 days at 20° C., read-out: % effectiveness after 10 days
[9] = 480 h, 20 days at 20° C., read-out: % effectiveness after 20 days

Compound: O=C1CC(C2C=CCCC2)C(=O)N1c1cc(Cl)cc(Cl)c1 (centres unmarked) [2-(cyclohex-2-en-1-yl)-succinic acid N--(3,5-dichlorophenyl)imide, reference compound]
- inhibition of growth at 500 ppm [1]: 0%
- inhibition of growth at 500 ppm [2]: 30%
- inhibition of growth at 10 ppm [3, 8]: 0%
- inhibition of growth at 10 ppm [3, 9]: 0%
- inhibition of growth at 500 ppm [4]: 30%
- inhibition of growth at 500 ppm [5]: 0%
- inhibition at 100 ppm [6]: 0%
- inhibition of growth at 500 ppm [7]: 25%

Compound: CCC=CCSC1CC(=O)N(c2cc(Cl)cc(Cl)c2)C1=O (centres unmarked) [2-(pent-2-en-1-ylmercapto)-succinic acid N--(3,5-dichlorophenyl)imide, reference compound]
- inhibition of growth at 500 ppm [1]: 10%
- inhibition of growth at 500 ppm [2]: 20%
- inhibition of growth at 10 ppm [3, 8]: 80%
- inhibition of growth at 10 ppm [3, 9]: 45%
- inhibition of growth at 500 ppm [4]: 10%
- inhibition of growth at 500 ppm [5]: 20%
- inhibition at 100 ppm [6]: 40%
- inhibition of growth at 500 ppm [7]: 20%

Compound: CC(=O)OC1CC(=O)N(c2cc(Cl)cc(Cl)c2)C1=O (centres unmarked) [2-acetoxysuccinic acid N-(3,5-dichlorophenyl) imide]
- inhibition of growth at 500 ppm [1]: 100%
- inhibition of growth at 500 ppm [2]: 100%
- inhibition of growth at 10 ppm [3, 8]: 80%
- inhibition of growth at 10 ppm [3, 9]: 70%
- inhibition of growth at 500 ppm [4]: 70%
- inhibition of growth at 500 ppm [5]: 100%
- inhibition at 100 ppm [6]: 100%
- inhibition of growth at 500 ppm [7]: 100%

Compound: C=CCOC1CC(=O)N(c2cc(Cl)cc(Cl)c2)C1=O (centres unmarked) [2-allyloxysuccinic acid N-(3,5-dichlorophenyl)imide]
- inhibition of growth at 500 ppm [1]: 80%
- inhibition of growth at 500 ppm [2]: 80%
- inhibition of growth at 10 ppm [3, 8]: 80%
- inhibition of growth at 10 ppm [3, 9]: 80%
- inhibition of growth at 500 ppm [4]: 80%
- inhibition of growth at 500 ppm [5]: 70%
- inhibition at 100 ppm [6]: 100%
- inhibition of growth at 500 ppm [7]: 100%

Compound: CCOC1CC(=O)N(c2cc(Cl)cc(Cl)c2)C1=O (centres unmarked) [2-ethoxysuccinic acid N-(3,5-dichlorophenyl)imide]
- inhibition of growth at 500 ppm [1]: 80%
- inhibition of growth at 500 ppm [2]: 70%
- inhibition of growth at 10 ppm [3, 8]: 100%
- inhibition of growth at 10 ppm [3, 9]: 100%
- inhibition of growth at 500 ppm [5]: 80%
- inhibition at 100 ppm [6]: 90%
- inhibition of growth at 500 ppm [7]: 100%

Compound: C=CCN1C(=O)CC(OC(=O)C(C)C)C1=O (centres unmarked) [2-isobutyroxysuccinic acid N--allylimide, 2-isobutyroxysuccinic acid N-allylimide]
- inhibition at 100 ppm [6]: 80%

Compound: CC(C)OC1CC(=O)N(c2cc(Cl)cc(Cl)c2)C1=O (centres unmarked) [2-isopropoxysuccinic acid N-(3,5-dichlorophenyl)imide]
- inhibition of growth at 500 ppm [1]: 100%
- inhibition of growth at 500 ppm [2]: 70%
- inhibition of growth at 10 ppm [3, 8]: 100%
- inhibition of growth at 10 ppm [3, 9]: 100%
- inhibition of growth at 500 ppm [4]: 50%
- inhibition of growth at 500 ppm [5]: 50%
- inhibition at 100 ppm [6]: 100%
- inhibition of growth at 500 ppm [7]: 100%

Compound: COCC1CC(=O)N(c2cc(Cl)cc(Cl)c2)C1=O (centres unmarked) [2-methoxymethylsuccinic acid N-(3,5-dichlorophenyl)imide]
- inhibition of growth at 500 ppm [1]: 100%
- inhibition of growth at 500 ppm [2]: 100%
- inhibition of growth at 10 ppm [3, 8]: 100%
- inhibition of growth at 10 ppm [3, 9]: 100%
- inhibition of growth at 500 ppm [4]: 70%
- inhibition of growth at 500 ppm [5]: 100%
- inhibition at 100 ppm [6]: 100%
- inhibition of growth at 500 ppm [7]: 100%

Compound: COCC1CC(=O)N(c2cccc(Cl)c2)C1=O (centres unmarked) [2-methoxymethylsuccinic acid N-(3-chlorophenyl)imide]
- inhibition of growth at 10 ppm [3, 8]: 90%
- inhibition of growth at 10 ppm [3, 9]: 80%
- inhibition at 100 ppm [6]: 80%

Compound: CCC(C)N1C(=O)CC(COC)C1=O (centres unmarked) [2-methoxymethylsuccinic acid N-(but-2-yl)imide]
- inhibition at 100 ppm [6]: 80%

Compound: COC1CC(=O)N(c2cc(Cl)cc(Cl)c2)C1=O (centres unmarked) [2-methoxysuccinic acid N-(3,5-dichlorophenyl) imide]
- inhibition of growth at 500 ppm [1]: 80%
- inhibition of growth at 500 ppm [2]: 90%
- inhibition of growth at 10 ppm [3, 8]: 100%
- inhibition of growth at 10 ppm [3, 9]: 100%
- inhibition of growth at 500 ppm [5]: 90%
- inhibition at 100 ppm [6]: 95%
- inhibition of growth at 500 ppm [7]: 100%

Compound: CCCc1ccc(N2C(=O)CC(OC)C2=O)cc1 (centres unmarked) [2-methoxysuccinic acid N--(4-propylphenyl)imide]
- inhibition at 100 ppm [6]: 80%

Compound: CC(C)NC(=O)N1CC(=O)N(c2cc(Cl)cc(Cl)c2)C1=O [Rovral, 3-(3,5-dichlorophenyl)-1-isopropylcarbymoylhydantoin, reference compound]
- inhibition of growth at 500 ppm [1]: 60%
- inhibition of growth at 500 ppm [2]: 0%
- inhibition of growth at 500 ppm [4]: 30%
- inhibition of growth at 500 ppm [5]: 0%
- inhibition at 100 ppm [6]: 75%
- inhibition of growth at 500 ppm [7]: 100%
